Data as given in patent publication EP4772514A1, “MACROCYCLIC COMPOUNDS, PREPARATION METHOD THEREFOR, AND USE THEREOF” (Genfleet Therapeutics (Shanghai) Inc., priority 2023, dated 2025).
Where a name gives a salt, the structure may show the parent alone. Read-outs that look alike come from different tables or passages of the source.

Experiments:
Assay type in all cases: cell-based
p-ERK [1] = assay: Cell p-ERK assay (HTRF, Advance ERK phospho-T202/Y204 kit) in NCI-H441 cells; settings: NCI-H441, human non-small cell lung cancer cell strain, KRAS G12V mutation, 3 h compound incubation
In short: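 Phospho-ERK (T202/Y204) measured by HTRF in lysates of AsPC-1 (KRAS G12D) or NCI-H441 (KRAS G12V) cells after 3 h compound exposure at 37 °C in RPMI-1640 + 10% FBS, 0.1% DMSO. Inhibition normalised to DMSO and blank wells; IC50 by four-parameter fit.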

p-ERK [2] = assay: Cell p-ERK assay (HTRF, Advance ERK phospho-T202/Y204 kit) in AsPC-1 cells; settings: ASPC1; AsPC-1, human pancreatic cancer cell strain, KRAS G12D mutation; 3 h compound incubation
Description: AsPC-1 cells were purchased from ATCC, Cat. No. CRL-1682; NCI-H441 cells were purchased from ATCC, Cat. No. HTB-174; RPMI-1640 medium was purchased from Gibco, Cat. No. 11875-093; FBS was purchased from Gibco, Cat. No. 10099-141C; penicillin/streptomycin double-antibiotic solution (PS) was purchased from Gibco, Cat. No. 15140-122; trypsin (containing EDTA) was purchased from Gibco, Cat. No. 25200-072; DMSO was purchased from VWRAMRESCO, Cat. No. 0231-500ML; 96-well cell culture plates were purchased from Corning, Cat. No. 3599; white-bottomed, opaque 96-well plates were purchased from Cisbio, Cat. No. 66PL96025; Advance ERK phospho-T202/Y204 kit was purchased from Cisbio, Cat. No. 64AERPEH; cell counter was purchased from CHEMOMETEC, model: NC-200; microplate reader was purchased from PerkinElmer, model: EnVision.
AsPC-1, a human pancreatic cancer cell strain endogenously containing a KRAS^G12D mutation, was cultured in a complete medium containing RPMI-1640 + 10% FBS + 1% PS. NCI-H441, a human non-small cell lung cancer cell strain endogenously containing a KRAS^G12V mutation, was cultured in a complete medium containing RPMI-1640 + 10% FBS + 1% PS.
The cells were digested with trypsin (containing EDTA), collected in their corresponding complete media, and counted. The density of the cell suspensions was adjusted with their corresponding complete media, and AsPC-1 cells (10000 cells/well) or NCI-H441 cells (20000 cells/well) were seeded into a 96-well cell culture plate, with the volume of the medium in each well being 80 µL. The cell culture plate was incubated in an incubator at 37 °C with 5% CO2 overnight. A series of 3.16-fold gradient dilutions of a 1000× compound stock solution were prepared with DMSO, and then diluted 200-fold with the complete medium described above to give 5× compound stock solutions. On the day after cell seeding, 20 µL of the 5× compound stock solution was added to each cell culture well. As a result, the final concentration of the compound in the cell culture well became 1×, and the DMSO content in the well was 0.1%. In addition to the compound-treated wells described above, cell-containing DMSO control wells were also set. A complete medium containing 0.5% DMSO was added at 20 µL/well. After the mixture was well mixed, the culture plate was incubated in the incubator at 37 °C with 5% CO2 for another 3 h. The medium was then removed from the culture wells, and 50 µL of cell lysis buffer (from Advance ERK phospho-T202/Y204 kit) was added to each well. The mixture was well mixed, incubated for 30 min, and then transferred to a white-bottomed, opaque 96-well assay plate at 16 µL/well, and separately, 16 µL of cell lysis buffer was added to additional wells (serving as blank wells) in the assay plate. After the transfer was completed, 4 µL of p-ERK HTRF antibody mixture (from Advance ERK phospho-T202/Y204 kit) was added to each well of the assay plate, followed by a 4-hour incubation. The HTRF signal values (RLU) were then measured using a microplate reader, and the inhibition rate of the compound against p-ERK levels was calculated as follows: IR(%) = (RLUDMSO - RLUcompound)/(RLUDMSO - RLUblank) × 100%, where RLUDMSO is the average HTRF signal value from the DMSO control well samples, RLU is the average HTRF signal value from the blank well samples, and RLUcompound is the HTRF signal value from the compound-treated well samples. Using an XLfit software, the IR(%) values were plotted against the logarithm of the compound concentrations, and the dose-response curves were fitted using the four-parameter method to calculate the IC50 values.

NCI-H441 cells = assay: 3D cell proliferation assay (CellTiter Glo-3D) in NCI-H441 cells; settings: NCI-H441, human lung cancer cell strain, KRAS G12V mutation, 3D culture, 2% FBS, 5 days, read-out: H441 AP IC50
Description: MIA PaCa-2 cells were purchased from ATCC, Cat. No. CRL-1420; AsPC-1 cells were purchased from ATCC, Cat. No. CRL-1682; NCI-H441 cells were purchased from ATCC, Cat. No. HTB-174; NCI-H1975 cells were purchased from ATCC, Cat. No. CRL-5908; DMEM medium was purchased from Gibco, Cat. No. 11995-065; RPMI-1640 medium was purchased from Gibco, Cat. No. 11875-093; FBS was purchased from Gibco, Cat. No. 10099-141C; penicillin/streptomycin double-antibiotic solution (PS) was purchased from Gibco, Cat. No. 15140-122; Horse serum was purchased from Gibco, Cat. No. 16050130; trypsin (containing EDTA) was purchased from Gibco, Cat. No. 25200-072; DMSO was purchased from VWRAMRESCO, Cat. No. 0231-500ML; 384-well cell culture plates were purchased from Corning, Cat. No. 3830; white-bottomed, opaque 384-well assay plates were purchased from Corning, Cat. No. 3570; CellTiter Glo-3D kit was purchased from Promega, Cat. No. G9683; cell counter was purchased from CHEMOMETEC, model: NC-200; microplate reader was purchased from PerkinElmer, model: EnVision.
MIA PaCa-2, a human pancreatic cancer cell strain endogenously containing a KRAS^G12Cmutation, was cultured in a complete medium containing DMEM + 10% FBS + 2.5% Horse serum + 1% PS. AsPC-1, a human pancreatic cancer cell strain endogenously containing a KRAS^G12D mutation, was cultured in a complete medium containing RPMI-1640 + 10% FBS + 1% PS. NCI-H441 cells, a human lung cancer cell strain endogenously containing a KRAS^G12V mutation, were cultured in a complete medium containing RPMI-1640 + 10% FBS + 1% PS. NCI-H1975, a KRAS wild-type human lung cancer cell strain whose cell proliferation […], was cultured in a complete medium containing RPMI-1640 + 10% FBS + 1% PS.
The cells were digested with trypsin (containing EDTA), collected in their respective low-serum complete media containing 2% FBS (for MIA Paca-2 cell culture: DMEM + 2% FBS + 0.5% Horse serum + 1% PS), and counted. After the cell density was adjusted as required, MIA PaCa-2 cells (200 cells/well), AsPC-1 cells (800 cells/well), NCI-H441 cells (800 cells/well), or NCI-H1975 cells (400 cells/well) were seeded into a 384-well cell culture plate, with the volume of the medium in each well being 45 µL. The cell culture plate was incubated in an incubator at 37 °C with 5% CO2 overnight. A series of 3.16-fold gradient dilutions of a 1000× compound stock solution were prepared with DMSO, and then diluted 100-fold with the complete medium containing 2% FBS described above to give 10× compound stock solutions. On the day after cell seeding, 5 µL of the 10× compound stock solution was added to each cell culture well. As a result, the final concentration of the compound in the cell culture well became 1×, and the DMSO content in the well was 0.1%. In addition to the compound-treated wells described above, cell-containing DMSO control wells (with 5 µL of the complete medium containing 1% DMSO added to each well) and cell-free medium control wells (containing 50 µL of the complete medium with 2% FBS) were also set. The culture plate was incubated in an incubator at 37 °C with 5% CO2 for another 5 days, and then 30 µL of CellTiter-Glo working solution was added to each well. The mixture was well mixed, incubated for 30 min, left to stand at room temperature for 30 min, and then transferred to a white-bottomed, opaque 384-well assay plate at 40 µL/well. The chemiluminescence values (RLU) were measured using a microplate reader, and the cell proliferation inhibition rate for each well was calculated: IR(%) = (RLUDMSO - RLUcompound)/(RLUDMSO - RLUblank) × 100%, where RLUDMSO is the average RLU signal value from the DMSO control well samples, RLUblank is the average RLU signal value from the medium control well samples, and RLUcompound is the RLU signal value from the compound-treated well samples. […]

| Compound | IC50 (p-ERK [1]; Homo sapiens, NCI-H441, 3 h) [nM] | IC50 (p-ERK [2]) [nM] | IC50 (NCI-H441 cells; Homo sapiens, NCI-H441, 120 h) [nM] | IC50 (p-ERK [1]) [nM] | IC50 (NCI-H441 cells) [nM] |
| --- | --- | --- | --- | --- | --- |
| CCn1nc2c(c1-c1cc(N3CCN(C)CC3)cnc1[C@H](C)OC)CC(C)(C)COC(=O)[C@@H]1CCCN(N1)C(=O)[C@@H](NC(=O)[C@H]1[C@H](C)[C@@H]1C)Cc1nc(cs1)/C=C/2 (atropisomer, axis not shown) [Compound Z4] | 157 | 367 |  |  |  |
| CCn1cc2c(c1-c1cc(C#CCN3CCC(C#N)CC3)cnc1[C@H](C)OC)CC(C)(C)COC(=O)[C@@H]1CCCN(N1)C(=O)[C@@H](NC(=O)[C@H]1[C@@H]3COC[C@@H]31)Cc1nc(co1)/C=C/2 (atropisomer, axis not shown; (Ra)) [Compound Z85, (1R,5S,6r)-N-((4^2Z,8^3S,2E,6S)-(Ra)-1^5-(5-(3-(4-cyanopiperidin-1-yl)prop-1-yn-1-yl)-2-((S)-1-methoxyethyl)pyridin-3-yl)-1^1-ethyl-12,12-dimethyl-7,9-dioxo-8^1,8^2,8^3,8^4,8^5,8^6-hexahydro-1^1H-10-oxa-4(4,2)-oxazola-8(1,3)-pyridazina-1(3,4)-pyrrolacyclotridecaphan-2-en-6-yl)-3-oxabicyclo[3.1.0]hexane-6-carboxamide] | 0.2 | 0.04 |  |  |  |
| CCn1cc2c(c1-c1cc(C#CCN3CCC(C#N)(CN)CC3)cnc1[C@H](C)OC)CC(C)(C)COC(=O)[C@@H]1CCCN(N1)C(=O)[C@@H](NC(=O)[C@H]1[C@H](C)[C@@H]1C)Cc1nc(co1)/C=C/2 (atropisomer, axis not shown; (Ra)) [Compound Z234, (1r,2R,3S)-N-((4^2Z,8^3 S,2E,6S)-(Ra)-1^5-(5-(3-(4-(aminomethyl)-4-cyanopiperidin-1-yl)prop-1-yn-1-yl)-2-((S)-1-methoxyethyl)pyridin-3-yl)-1^1-ethyl-12,12-dimethyl-7,9-dioxo-8^1,8^2,8^3,8^4,8^5,8^6-hexahydro-1^1H-10-oxa-4(4,2)-oxazola-8(1,3)-pyridazina-1(3,4)-pyrrolacyclotridecaphan-2-en-6-yl)-2,3-dimethylcyclopropane-1-carboxamide] | 0.36 | 0.07 |  |  |  |
| CCn1nc2c(c1-c1cc(N3CCN(C)CC3)cnc1[C@H](C)OC)CC(C)(C)COC(=O)[C@@H]1CCCN(N1)C(=O)[C@@H](NC(=O)[C@H]1[C@H](C)[C@@H]1C)Cc1nc(cs1)/C=C/2 (single isomer, unassigned) [Compound Z4-1] | 71.8 | 191 |  |  |  |
| CCn1nc2c(c1-c1cc(C#CCN3CCS(=O)(=O)CC3)cnc1C(C)OC)CC(C)(C)COC(=O)C1CCCN(N1)C(=O)C(NC(=O)C(C(C)C)N(C)C(=O)Cn1ccc3ccccc31)Cc1nc(cs1)C=C2 (single isomer, unassigned) [Compound Z54-1] | 150 |  | 240 |  |  |
| CO[C@@H](C)c1ncc(C#CCN2CCS(=O)(=O)CC2)cc1-c1c2c(nn1C(C)C)/C=C/c1csc(n1)C[C@H](NC(=O)[C@H](Cc1cccc3ncccc13)C(C)C)C(=O)N1CCC[C@H](N1)C(=O)OCC(C)(C)C2 [Compound Z44-2, (2R)-N-((4^2Z,8^3S,2E,6S)-1^5-(5-(3-(1,1-dioxidothiomorpholino)prop-1-yn-1-yl)-2-((S)-1-methoxyethyl)pyridin-3-yl)-1^1-isopropyl-12,12-dimethyl-7,9-dioxo-8^1,8^2,8^3,8^4,8^5,8^6-hexahydro-1^1H-10-oxa-4(4,2)-thiazola-8(1,3)-pyridazina-1(3,4)-pyrazolocyclotridec-2-en-6-yl)-3-methyl-2-(quinolin-5-ylmethyl)butanamide formate] |  |  |  | 15.4 | 76.3 |
| (2R)-N-((4^2Z,8^3S,2E,6S)-(Ra)-1^5-(5-(3-(1,1-dioxothiomorpholino)prop-1-yn-1-yl)-2-((S)-1-methoxyethyl)pyridin-3-yl)-1^1-ethyl-12,12-dimethyl-7,9-dioxo-8^1,8^2,8^3,8^4,8^5,8^6-hexahydro-1^1H-10-oxo-4(4,2)-thiazola-8(1,3)-pyridazina-1(3,4)-pyrrolacyclotridecaphan-2-en-6-yl)-3-methyl-2-(N-methyl-2-phenylacetamido)butanamide [Compound Z47-2] |  |  |  | 17.3 | 37.6 |
